# Laboratory results published in patent publication US20140220100A1, “VACCINE COMPOSITION FOR TRANSDERMAL ADMINISTRATION” (NITTO DENKO CORPORATION, priority 2013, published 2014).
# Test system: IFN-γ-producing cells (spleen cells co-cultured with antigen peptide)
# Assay: Immunity Induction Test 1 in mouse (liquid formulation for external use), ELISPOT
# Type: in vivo
# Conditions: summary of Tables 1, 2 and 4; transdermal HER2/neu E75 peptide vaccine composition
# Experimental: A cellulose non-woven fabric (area 0.8 cm^2) was attached to a middle part of an adhesive tape for fixing to prepare a composite substrate. The non-woven fabric part of the composite substrate was immersed with 67 μL of the liquid formulation for external use. Thus a sample for immunity induction test was prepared.
# The liquid formulations for external use prepared as above described were used to perform an immunity induction test using a model mouse for immunological evaluation. The immunity induction level was evaluated by ELISPOT method. Specifically, the hair of the back skin of a mouse was cut, and the mouse was kept in a period for recovering from the skin damage. Thereafter, each sample was administered to the back skin of the mouse for a predetermined period, and then removed. After keeping the mouse for a predetermined day, the level of the cellular immunity induction specific for the antigen was evaluated. On a predetermined day after the administration, the spleen of the mouse was excised to prepare a suspension of the spleen cells. Spleen cells (3×10^6 cells/well) and an antigen peptide (100 μM) were added together with a culture solution into a well of ELISPOT plate containing an immobilized anti-mouse IFN-γ […], and co-cultured at 37° C. in 5% CO2 for 20 hours. The spot number of IFN-γ-producing cells was evaluated by ELISPOT method (the number of the spot/3×10^6 cells). The dosage of the liquid formulation for external use was all 67 μL as described above, and the administration was performed once (24 hr/week), the spleen was excised 6 days after the administration.
# The results of the immunity induction test, and the measurement results of TSLP level and transepidermal water loss are shown in Table 1.
row,Structure (SMILES),promotion of induction of cellular immunity by addition of a pharmacologically acceptable acid as second cellular immunity induction promoter
1,CC(C)CCCCCCCCCCCCCCC(=O)O [isostearic acid],effective
2,CC(O)C(=O)O (stereo not drawn) [lactic acid],effective
3,CCCCCCCCCCCCCCCC(=O)O [palmitic acid],effective
4,O=C(O)c1ccccc1O [salicylic acid],effective
5,CCCCCCCCCCCCCCCCCC(=O)O [stearic acid],effective
6,CS(=O)(=O)O [methanesulfonic acid],effective
7,CCCCCCCC/C=C\CCCCCCCC(=O)O [oleic acid],effective
8,O=C(O)/C=C\C(=O)O [maleic acid],effective
9,CCCCCCCCCCCC(=O)O [lauric acid],effective
10,CCCCCCCCCCCCCC(=O)O [myristic acid],effective
11,CCCCCCCCCC(=O)O [decanoic acid],effective
12,O=C(O)CC(O)C(=O)O (stereo not drawn) [malic acid],effective
